Experimental data as given in patent publication US12157741B2, “Macrocyclic inhibitors of DYRK1A” (DANA-FARBER CANCER INSTITUTE, INC., priority 2018, dated 2024).
Where two headings read alike, the source gives them in different places.

Columns and labels:
Format in all cases: binding
various enzymes [1] = biological target: T1, various enzymes (Homo sapiens, UniProt O60285); conditions: compound 1 uM
T1 sequence (O60285 1-661): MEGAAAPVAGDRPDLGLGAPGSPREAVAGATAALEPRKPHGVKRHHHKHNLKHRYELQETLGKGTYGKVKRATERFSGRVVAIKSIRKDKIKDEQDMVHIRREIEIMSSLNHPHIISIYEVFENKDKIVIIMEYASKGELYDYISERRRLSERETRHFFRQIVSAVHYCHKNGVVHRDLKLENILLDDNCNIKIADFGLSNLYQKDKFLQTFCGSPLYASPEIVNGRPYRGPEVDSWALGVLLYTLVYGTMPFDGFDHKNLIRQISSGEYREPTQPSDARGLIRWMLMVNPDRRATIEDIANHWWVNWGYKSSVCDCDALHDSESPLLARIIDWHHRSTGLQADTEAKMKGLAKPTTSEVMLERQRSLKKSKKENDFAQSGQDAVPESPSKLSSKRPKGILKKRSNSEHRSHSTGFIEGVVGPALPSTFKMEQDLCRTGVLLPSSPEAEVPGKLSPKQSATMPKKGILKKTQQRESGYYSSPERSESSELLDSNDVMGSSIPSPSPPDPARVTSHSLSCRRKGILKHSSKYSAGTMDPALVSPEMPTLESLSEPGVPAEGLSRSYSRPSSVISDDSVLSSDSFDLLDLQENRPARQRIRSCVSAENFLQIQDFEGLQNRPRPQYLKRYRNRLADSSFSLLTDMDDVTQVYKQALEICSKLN
Method: (§1) Ambit profiling was conducted in accordance with the manufacturer's instructions.

various enzymes [2] = biological target: various enzymes (Homo sapiens, UniProt P00519, F317L); conditions: compound 1 uM
various enzymes (Homo sapiens, UniProt P00519, F317L), sequence (P00519 whole entry F317L): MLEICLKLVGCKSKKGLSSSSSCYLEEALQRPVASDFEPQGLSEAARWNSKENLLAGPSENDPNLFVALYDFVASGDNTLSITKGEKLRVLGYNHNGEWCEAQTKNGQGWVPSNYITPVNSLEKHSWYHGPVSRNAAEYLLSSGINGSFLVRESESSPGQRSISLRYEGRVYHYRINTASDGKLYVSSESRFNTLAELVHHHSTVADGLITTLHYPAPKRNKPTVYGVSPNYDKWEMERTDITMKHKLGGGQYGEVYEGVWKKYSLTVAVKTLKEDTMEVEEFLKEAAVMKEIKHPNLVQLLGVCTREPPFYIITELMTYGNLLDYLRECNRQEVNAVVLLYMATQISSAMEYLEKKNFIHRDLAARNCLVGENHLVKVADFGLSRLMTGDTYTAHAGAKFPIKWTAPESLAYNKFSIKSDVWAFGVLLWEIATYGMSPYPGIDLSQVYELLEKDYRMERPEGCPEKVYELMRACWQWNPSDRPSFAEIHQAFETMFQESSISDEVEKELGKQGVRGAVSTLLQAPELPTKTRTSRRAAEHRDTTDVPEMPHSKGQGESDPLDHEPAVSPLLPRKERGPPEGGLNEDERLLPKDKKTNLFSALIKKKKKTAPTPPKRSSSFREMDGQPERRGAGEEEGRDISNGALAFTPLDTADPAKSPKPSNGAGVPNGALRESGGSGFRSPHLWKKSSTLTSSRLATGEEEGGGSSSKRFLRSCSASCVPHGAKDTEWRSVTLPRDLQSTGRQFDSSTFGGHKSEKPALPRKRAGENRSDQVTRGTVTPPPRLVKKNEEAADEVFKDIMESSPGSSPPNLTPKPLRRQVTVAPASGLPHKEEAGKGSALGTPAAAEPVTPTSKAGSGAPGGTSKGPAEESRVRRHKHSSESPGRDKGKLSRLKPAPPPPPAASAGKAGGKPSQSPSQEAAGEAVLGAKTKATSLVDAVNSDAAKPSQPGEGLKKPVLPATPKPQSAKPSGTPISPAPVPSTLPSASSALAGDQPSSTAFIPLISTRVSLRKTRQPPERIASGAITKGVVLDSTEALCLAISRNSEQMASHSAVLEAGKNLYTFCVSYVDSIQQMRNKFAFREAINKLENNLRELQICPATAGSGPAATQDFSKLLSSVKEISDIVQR
Method: as §1

various enzymes [3] = biological target: various enzymes (Homo sapiens, UniProt P00533, L858R/T790M)
Method: as §1

various enzymes [4] = biological target: various enzymes (Homo sapiens, UniProt P07949, V804M)
Method: as §1

various enzymes [5] = biological target: various enzymes (Homo sapiens, UniProt P23443); conditions: compound 1 uM
Method: as §1

various enzymes [6] = biological target: various enzymes (Homo sapiens, UniProt P29320); conditions: compound 1 uM
Method: as §1

various enzymes [7] = biological target: various enzymes (Homo sapiens, UniProt P36888, D835V)
Method: as §1

various enzymes [8] = biological target: various enzymes (Homo sapiens, UniProt P42336, Q546K)
Method: as §1

various enzymes [9] = biological target: various enzymes (Homo sapiens, UniProt P52564); conditions: compound 1 uM
various enzymes (Homo sapiens, UniProt P52564), sequence (P52564 whole entry): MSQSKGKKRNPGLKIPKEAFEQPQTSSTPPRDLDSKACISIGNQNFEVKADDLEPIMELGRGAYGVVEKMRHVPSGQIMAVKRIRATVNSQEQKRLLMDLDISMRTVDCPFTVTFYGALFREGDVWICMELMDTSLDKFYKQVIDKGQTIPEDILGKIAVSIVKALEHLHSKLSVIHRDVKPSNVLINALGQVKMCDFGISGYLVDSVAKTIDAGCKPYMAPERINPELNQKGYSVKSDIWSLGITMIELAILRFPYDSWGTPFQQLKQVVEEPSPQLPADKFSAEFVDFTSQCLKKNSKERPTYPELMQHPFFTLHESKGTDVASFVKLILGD
Method: as §1

various enzymes [10] = biological target: various enzymes (Homo sapiens, UniProt P53350); conditions: compound 1 uM
Method: as §1

various enzymes [11] = biological target: various enzymes (Homo sapiens, UniProt P57058); conditions: compound 1 uM
Method: as §1

various enzymes [12] = biological target: various enzymes (Homo sapiens, UniProt Q07912); conditions: compound 1 uM
Method: as §1

various enzymes [13] = biological target: T2, various enzymes (Homo sapiens, UniProt Q08881); conditions: compound 1 uM
T2 sequence (Q08881 1-620): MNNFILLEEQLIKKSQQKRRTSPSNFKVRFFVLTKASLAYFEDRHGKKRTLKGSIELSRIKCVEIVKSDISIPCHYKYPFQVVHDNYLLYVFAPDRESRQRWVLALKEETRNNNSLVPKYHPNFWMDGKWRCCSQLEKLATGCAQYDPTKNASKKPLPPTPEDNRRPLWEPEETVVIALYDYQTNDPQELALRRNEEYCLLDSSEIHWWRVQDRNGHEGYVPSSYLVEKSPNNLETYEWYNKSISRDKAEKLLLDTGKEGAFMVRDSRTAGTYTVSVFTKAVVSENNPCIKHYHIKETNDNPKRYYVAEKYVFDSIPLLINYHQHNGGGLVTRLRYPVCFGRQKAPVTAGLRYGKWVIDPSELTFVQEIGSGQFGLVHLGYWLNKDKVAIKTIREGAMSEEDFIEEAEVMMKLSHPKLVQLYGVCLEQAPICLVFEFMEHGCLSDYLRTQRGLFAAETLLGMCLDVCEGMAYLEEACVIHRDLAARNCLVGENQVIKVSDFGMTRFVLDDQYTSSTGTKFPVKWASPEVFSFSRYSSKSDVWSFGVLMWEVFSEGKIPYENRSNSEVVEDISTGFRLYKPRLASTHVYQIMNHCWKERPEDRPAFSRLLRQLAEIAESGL
Method: as §1

various enzymes [14] = biological target: various enzymes (Homo sapiens, UniProt Q15569); conditions: compound 1 uM
Method: as §1

various enzymes [15] = biological target: various enzymes (Homo sapiens, UniProt Q15759); conditions: compound 1 uM
Method: as §1

various enzymes [16] = biological target: various enzymes (Homo sapiens, UniProt Q16620); conditions: compound 1 uM
various enzymes (Homo sapiens, UniProt Q16620), sequence (Q16620 32-822): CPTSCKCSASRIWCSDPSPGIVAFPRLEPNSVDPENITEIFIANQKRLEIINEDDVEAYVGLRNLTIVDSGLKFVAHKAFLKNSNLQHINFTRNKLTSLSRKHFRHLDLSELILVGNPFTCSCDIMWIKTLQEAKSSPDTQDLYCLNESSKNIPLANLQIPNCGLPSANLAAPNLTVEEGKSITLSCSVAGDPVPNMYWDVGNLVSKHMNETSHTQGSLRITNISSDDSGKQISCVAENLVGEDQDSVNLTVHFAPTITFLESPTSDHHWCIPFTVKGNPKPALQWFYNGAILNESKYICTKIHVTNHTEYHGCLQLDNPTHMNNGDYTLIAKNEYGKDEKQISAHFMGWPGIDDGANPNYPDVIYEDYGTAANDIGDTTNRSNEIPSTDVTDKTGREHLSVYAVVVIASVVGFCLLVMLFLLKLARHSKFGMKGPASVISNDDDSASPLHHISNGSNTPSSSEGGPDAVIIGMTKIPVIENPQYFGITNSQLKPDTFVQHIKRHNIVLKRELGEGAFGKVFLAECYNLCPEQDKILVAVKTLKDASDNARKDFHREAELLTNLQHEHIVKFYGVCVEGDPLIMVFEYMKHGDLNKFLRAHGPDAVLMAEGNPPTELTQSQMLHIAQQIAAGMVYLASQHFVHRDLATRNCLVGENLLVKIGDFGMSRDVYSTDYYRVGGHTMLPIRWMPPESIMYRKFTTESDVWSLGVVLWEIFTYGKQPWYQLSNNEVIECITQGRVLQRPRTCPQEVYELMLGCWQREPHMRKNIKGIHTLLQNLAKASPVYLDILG
Method: as §1

various enzymes [17] = biological target: various enzymes (Homo sapiens, UniProt Q96SB4); conditions: compound 1 uM
Method: as §1

various enzymes [18] = biological target: various enzymes (Homo sapiens, UniProt Q9NY57); conditions: compound 1 uM
various enzymes (Homo sapiens, UniProt Q9NY57), sequence (Q9NY57 whole entry): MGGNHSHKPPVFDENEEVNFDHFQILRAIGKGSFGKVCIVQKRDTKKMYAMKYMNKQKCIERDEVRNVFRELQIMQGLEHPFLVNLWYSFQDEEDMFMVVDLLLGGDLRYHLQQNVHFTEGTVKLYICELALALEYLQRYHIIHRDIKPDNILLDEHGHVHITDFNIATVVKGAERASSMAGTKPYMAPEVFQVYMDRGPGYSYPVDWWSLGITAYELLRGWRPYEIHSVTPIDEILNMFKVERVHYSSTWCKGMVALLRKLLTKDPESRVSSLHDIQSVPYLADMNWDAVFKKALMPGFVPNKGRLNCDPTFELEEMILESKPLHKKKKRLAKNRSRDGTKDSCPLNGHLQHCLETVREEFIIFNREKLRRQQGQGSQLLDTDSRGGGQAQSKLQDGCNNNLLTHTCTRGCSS
Method: as §1

various enzymes [19] = biological target: various enzymes (Homo sapiens, UniProt Q9UK32); conditions: compound 1 uM
various enzymes (Homo sapiens, UniProt Q9UK32), sequence (Q9UK32 whole entry): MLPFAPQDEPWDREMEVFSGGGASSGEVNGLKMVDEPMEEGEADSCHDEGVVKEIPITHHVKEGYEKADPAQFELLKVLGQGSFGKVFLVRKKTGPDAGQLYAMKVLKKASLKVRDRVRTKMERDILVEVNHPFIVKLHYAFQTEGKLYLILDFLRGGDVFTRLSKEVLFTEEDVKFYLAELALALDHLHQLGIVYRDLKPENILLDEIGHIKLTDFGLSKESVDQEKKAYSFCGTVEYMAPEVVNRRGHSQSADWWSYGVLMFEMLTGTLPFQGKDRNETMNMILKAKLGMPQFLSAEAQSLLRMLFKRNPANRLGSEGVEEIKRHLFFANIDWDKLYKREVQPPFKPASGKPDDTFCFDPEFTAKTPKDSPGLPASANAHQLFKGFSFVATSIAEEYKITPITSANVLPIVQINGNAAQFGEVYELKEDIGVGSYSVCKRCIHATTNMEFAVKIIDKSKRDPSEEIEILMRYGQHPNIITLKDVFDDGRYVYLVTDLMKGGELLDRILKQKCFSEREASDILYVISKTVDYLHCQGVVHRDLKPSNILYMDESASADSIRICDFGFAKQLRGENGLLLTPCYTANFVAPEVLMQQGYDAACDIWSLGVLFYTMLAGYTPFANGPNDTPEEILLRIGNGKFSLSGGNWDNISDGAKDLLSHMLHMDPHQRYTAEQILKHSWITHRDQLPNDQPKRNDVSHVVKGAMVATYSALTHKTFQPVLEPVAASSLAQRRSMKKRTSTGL
Method: as §1

various enzymes [20] = biological target: various enzymes (Homo sapiens, UniProt Q9UM73, L1196M)
various enzymes (Homo sapiens, UniProt Q9UM73, L1196M), sequence (Q9UM73 19-1620 L1196M): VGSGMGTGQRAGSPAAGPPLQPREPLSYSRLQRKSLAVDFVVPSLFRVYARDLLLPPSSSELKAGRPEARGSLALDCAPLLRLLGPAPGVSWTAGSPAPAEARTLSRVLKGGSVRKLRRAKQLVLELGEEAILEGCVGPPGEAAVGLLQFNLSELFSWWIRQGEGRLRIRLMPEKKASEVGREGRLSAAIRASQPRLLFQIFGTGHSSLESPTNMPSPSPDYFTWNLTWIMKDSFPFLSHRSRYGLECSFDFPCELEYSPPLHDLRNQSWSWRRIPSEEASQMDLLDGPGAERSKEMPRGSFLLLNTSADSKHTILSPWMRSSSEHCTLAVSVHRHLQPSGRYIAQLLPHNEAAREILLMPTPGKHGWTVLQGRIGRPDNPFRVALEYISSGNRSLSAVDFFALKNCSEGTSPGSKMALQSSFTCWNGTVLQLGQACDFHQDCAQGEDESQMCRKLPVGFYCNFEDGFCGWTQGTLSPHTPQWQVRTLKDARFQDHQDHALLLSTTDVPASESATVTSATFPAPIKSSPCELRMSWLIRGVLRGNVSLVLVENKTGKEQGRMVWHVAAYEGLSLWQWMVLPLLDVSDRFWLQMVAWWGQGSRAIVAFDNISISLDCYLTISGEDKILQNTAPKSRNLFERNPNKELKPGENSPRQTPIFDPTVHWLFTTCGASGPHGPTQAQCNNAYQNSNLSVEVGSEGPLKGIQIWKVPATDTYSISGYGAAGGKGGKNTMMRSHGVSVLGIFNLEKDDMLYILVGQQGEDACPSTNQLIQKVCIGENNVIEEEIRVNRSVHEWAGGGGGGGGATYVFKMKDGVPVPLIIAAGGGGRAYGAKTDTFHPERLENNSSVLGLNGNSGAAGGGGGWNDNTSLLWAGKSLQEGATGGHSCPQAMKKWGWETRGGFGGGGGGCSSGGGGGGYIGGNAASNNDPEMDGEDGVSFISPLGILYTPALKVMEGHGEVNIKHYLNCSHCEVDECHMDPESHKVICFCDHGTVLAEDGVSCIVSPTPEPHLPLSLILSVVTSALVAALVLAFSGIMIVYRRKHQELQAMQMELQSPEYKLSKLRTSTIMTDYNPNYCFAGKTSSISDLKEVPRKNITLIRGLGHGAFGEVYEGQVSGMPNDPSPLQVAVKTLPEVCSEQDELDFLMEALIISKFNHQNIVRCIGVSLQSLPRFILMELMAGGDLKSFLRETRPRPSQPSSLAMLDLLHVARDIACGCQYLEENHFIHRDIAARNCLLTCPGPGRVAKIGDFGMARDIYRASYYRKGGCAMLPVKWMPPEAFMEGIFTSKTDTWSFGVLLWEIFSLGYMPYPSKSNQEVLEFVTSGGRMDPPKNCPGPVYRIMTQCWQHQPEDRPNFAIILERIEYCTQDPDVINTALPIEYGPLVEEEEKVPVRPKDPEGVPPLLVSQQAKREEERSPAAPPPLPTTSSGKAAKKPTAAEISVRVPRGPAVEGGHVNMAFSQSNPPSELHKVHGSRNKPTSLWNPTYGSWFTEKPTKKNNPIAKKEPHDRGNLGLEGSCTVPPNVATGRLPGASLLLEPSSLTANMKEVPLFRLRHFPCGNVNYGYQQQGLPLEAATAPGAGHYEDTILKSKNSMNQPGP
Method: as §1

various enzymes [21] = biological target: various enzymes (Homo sapiens, UniProt Q9Y5S2); conditions: compound 1 uM
Method: as §1

| SMILES | Ambit profiling: ARK5 (various enzymes [1]) | Ambit profiling: ABL1(F317L)-nonphosphorylated (various enzymes [2]) | Ambit profiling: ABL1(F317L)-phosphorylated (various enzymes [2]) | Ambit profiling: S6K1 (various enzymes [5]) | Ambit profiling: EPHA3 (various enzymes [6]) | Ambit profiling: MEK6 (various enzymes [9]) | Ambit profiling: PLK1 (various enzymes [10]) | Ambit profiling: HUNK (various enzymes [11]) | Ambit profiling: TNK2 (various enzymes [12]) | Ambit profiling: ITK (various enzymes [13]) | Ambit profiling: TESK1 (various enzymes [14]) | Ambit profiling: p38-beta (various enzymes [15]) | Ambit profiling: TRKB (various enzymes [16]) | Ambit profiling: SRPK1 (various enzymes [17]) | Ambit profiling: YANK2 (various enzymes [18]) | Ambit profiling: RSK4(Kin.Dom.1-N-terminal) (various enzymes [19]) | Ambit profiling: RSK4(Kin.Dom.2-C-terminal) (various enzymes [19]) | Ambit profiling: MRCKB (various enzymes [21]) | also measured |
| --- | --- | --- | --- | --- | --- | --- | --- | --- | --- | --- | --- | --- | --- | --- | --- | --- | --- | --- | --- |
| CC(C)N1Cc2nn(C)cc2-c2cnc3[nH]cc(c3c2)-c2cn(nc2C(F)(F)F)CCCC1=O [Compound 45, (Z)-5-isopropyl-31-methyl-13-(trifluoromethyl)-11H,21H,31H-5-aza-2(3,5)-pyrrolo[2,3-b]pyridina-1(4,1),3(4,3)-dipyrazolacyclononaphan-6-one] | 100 | 55 | 25 | 2.5 | 32 | 15 | 93 | 16 | 11 | 38 | 99 | 100 | 0.25 | 4.5 | 100 | 2.6 | 95 | 86 | Ambit profiling: EGFR(L858R, T790M) (various enzymes [3]; compound 1 uM): 27; Ambit profiling: RET(V804M) (various enzymes [4]; compound 1 uM): 8.2; Ambit profiling: FLT3(D835V) (various enzymes [7]; compound 1 uM): 0; Ambit profiling: PIK3CA(Q546K) (various enzymes [8]; compound 1 uM): 100; Ambit profiling: ALK(L1196M) (various enzymes [20]; compound 1 uM): 18 |
| COc1c2c(nn1C)CN(C(C)C)C(=O)CCCn1cc(c(C(F)(F)F)n1)-c1c[nH]c3ncc-2cc13 [Compound 50, (Z)-5-isopropyl-35-methoxy-31-methyl-13-(trifluoromethyl)-11H,21H,31H-5-aza-2(3,5)-pyrrolo[2,3-b]pyridina-1(4,1),3(4,3)-dipyrazolacyclononaphan-6-one] | 100 | 35 | 2.5 | 8.6 | 45 | 45 | 100 | 8 | 1.9 | 46 | 69 | 83 | 0 | 30 | 45 | 2.3 | 74 | 99 | Ambit profiling: EGFR(L858R, T790M) (various enzymes [3]): 19; Ambit profiling: RET(V804M) (various enzymes [4]): 6; Ambit profiling: FLT3(D835V) (various enzymes [7]): 0; Ambit profiling: PIK3CA(Q546K) (various enzymes [8]): 86; Ambit profiling: ALK(L1196M) (various enzymes [20]): 12 |
